Experimental findings from patent publication US20030199516A1, “Methods of treating infection by drug resistant bacteria” (Genesoft, Inc., priority 2001, published 2003) are described below.

What is called Kd is the free concentration of one partner at which half of the binding sites on the other are occupied at equilibrium, for simple one-to-one binding.

Assay [1] addresses target sequence AATTAATCAT (352 bp fragment, Plasmid C). As to the kind of experiment: Quantitative DNase I footprint titration. It is filed as binding. Particulars: 352 bp C, 22° C., pH 7.0, read-out: Dissociation Constant Kd. From the text:
(§1) Compounds (1) through (20) according to this invention were screened for their ability to bind to specified DNA target sequences, using DNase I footprinting. Generally, the procedure described in Dervan, WO 98/50582 (1998), was followed.
(§2) Three double stranded circular plasmids A, B, and C were used to prepare double stranded DNA-binding probes containing the target sequences for the DNase I footprint titration experiments. Plasmids A, B, and C had nucleotide sequences given by SEQ ID NO. I, SEQ ID NO. II, and SEQ ID NO. III, respectively.
(§3) The 3′-P32 end-labeled EcoRI/PvuII fragments from each plasmid were prepared by digesting the plasmids with EcoRI and PvuII with simultaneous fill-in using Sequenase v. 2.0, [alpha-P32]-deoxyadenosine-5′-triphosphate, and [alpha-P32]-thymidine-5′-triphosphate, and isolating the cloned fragments by nondenaturing gel electrophoresis. A and G sequencing reactions were carried out as described (See Maxam and Gilbert, Methods Enzymol., 1980, 65, 499-560; Iverson and Dervan, Methods Enzymol., 1987, 15, 7823-7830; Sambrook et al., 1989, Molecular Cloning, 2nd ed., Cold Spring Harbor Laboratory Press: Cold Spring Harbor, N.Y.) Standard methods were used for all DNA manipulations (Sambrook et al., ibid.) The cut sites for EcoRI and PvuII are indicated by bars in the respective maps of Plasmids A, B, and C in FIGS. 5, 6, and 7.
(§4) The 351 base pair dsDNA restriction fragment (SEQ ID NO. IV) of Plasmid A contained the target sequences AAAAAGCAAAAA, AAAAAGACAAAAA, and AAAAAGTACAAAAA. The 310 base pair dsDNA restriction fragment (SEQ ID NO. V) of Plasmid B contained the target sequences AGTACT, AATACT, and ATTACT. The 352 base pair dsDNA restriction fragment (SEQ ID NO. VI) of Plasmid C contained the target sequences TGACAATTAAT, GACAATTAATCA, AATTAATCAT, ACAATTA, and ACAATTAAT. These fragments were used for quantitative DNase I footprinting experiments. Compounds used in the method of this invention bind to at least one of the target sites with a equal to or less than 100 nM, preferably equal to or less than 50 nM, and more preferably equal to or less than 20 nM. The target sequences were selected for the identity with, or similarity to, promoter sites for bacterial genes.
(§5) Quantitative DNase I footprint titration experiments were carried out as described previously (Dervan, WO 98/50582, 1998) with the following changes. All reactions were carried out in a total volume of 400 μL, with compound stock solution or water added to 15,000 cpm radiolabeled restriction fragment affording final solution conditions of 10 mM Tris HCl, 10 mM KCl, 10 mM MgCl2, 5 mM CaCl2, pH 7.0 and 0.01 nM, 0.1 nM, 1.0 nM, 10.0 nM compound or no compound for reference lanes. The compounds were allowed to equilbrate at 22° C. for 16 h. Footprinting reactions were initiated with addition of 10 μL of a DNase I stock solution (at the appropriate concentration to give ˜50% intact DNA) containing 1 mM DTT and allowed to proceed for 7 min at 22° C. The reactions were stopped, ethanol precipitated, resuspended in loading buffer, heat denatured, and placed on ice as described previously (Dervan WO 98/50582, 1998). The reaction products were separated on a precast 8% polyacrylamide denaturing sequencing Castaway gel with 32 preformed wells from Stratagene in 1×TBE at 2000 V. Gels were dried according to the manufacturer and exposed to a storage phosphor screen (Molecular Dynamics). Quantitation and data analysis were carried out as described in Dervan, WO 98/50582, 1998.

Assay [2] concerns Enterococcus faecium ATCC 51559. As to the kind of experiment: NCCLS broth microdilution MIC. Particulars: Col. D = E. faecium ATCC 51559 (VRE). It is filed as cell-based. From the text: (§6) In vitro antibacterial activity data were collected for the following Gram-positive bacteria: Staphylococcus aureus (ATCC 27660, ATCC 33591 and ATCC 43300, all methicillin resistant strains (MRSA's)); Streptococcus pneumoniae (ATCC 51422, a penicillin resistant strain (PRSP)), Enterococcus faecium (ATCC 51559, and/or a vancomycin resistant strain (VRE)). Additionally, antifungal activity data were collected for Candida albicans (ATCC 38247). Minimal inhibition concentrations (MIC's) were determined using the National Committee for Clinical Laboratory Standards (NCCLS) broth microdilution assay in microtiter plates, as set forth in: (1) the guidelines of the National Committee for Clinical Laboratory Standards (NCCLS) Document M7-A4 (NCCLS, 1997); (2) the guidelines of the National Committee for Clinical Laboratory Standards (NCCLS) Document M11-A4 (NCCLS, 1997); and (3) the guidelines and reference method of the National Committee for Clinical Laboratory Standards (NCCLS) Document M27-T (NCCLS, 1995). For antifungal essays, the method recommended in Murray, PR., 1995 Manual of Clinical Microbiology (ASM Press, Washington, D.C.), was employed.

For assay [3], the system named is Streptococcus pneumoniae ATCC 51422. Description: NCCLS broth microdilution MIC. The class given is cell-based. Particulars: Col. E = S. pneumoniae ATCC 51422 (PRSP).
Excerpt: as §6

For another assay, the system named is S. aureus ATCC 33591. As to the kind of experiment: NCCLS broth microdilution MIC. It is filed as cell-based, Staphylococcus aureus. Particulars: Col. B = S. aureus ATCC 33591 (MRSA).
Excerpt: as §6
Background: In broth dilution the organism is exposed to a series of concentrations in liquid medium.

In another assay the test system is S. aureus ATCC 27660. Description: NCCLS broth microdilution MIC. It is filed as cell-based, Staphylococcus aureus. To be noted: Col. A = S. aureus ATCC 27660 (MRSA).
Excerpt: as §6

In assay [4] the test system is Candida albicans ATCC 38247. Description: Antifungal MIC. It is filed as cell-based. To be noted: Col. F = C. albicans ATCC 38247.
Excerpt: as §6

Assay [5] concerns the target target sequence […] (351 bp fragment, Plasmid A). As to the kind of experiment: Quantitative DNase I footprint titration. The class given is binding. Particulars: AAAAAGTACAAAAA, 351 bp A; 22° C., pH 7.0; read-out: Dissociation Constant Kd.
Excerpt: as §1, §2, §3, §4, §5

For assay [6], the target named is target sequence TGACAATTAAT (352 bp fragment, Plasmid C). Description: Quantitative DNase I footprint titration. It is filed as binding. Particulars: 352 bp C, 22° C., pH 7.0, read-out: Dissociation Constant Kd.
Excerpt: as §1, §2, §3, §4, §5

For assay [7], the target named is target sequence GACAATTAATCA (352 bp fragment, Plasmid C). As to the kind of experiment: Quantitative DNase I footprint titration. To be noted: 352 bp C, 22° C., pH 7.0, read-out: Dissociation Constant Kd. The class given is binding.
Excerpt: as §1, §2, §3, §4, §5

Another assay has as its system S. aureus ATCC 43300. As to the kind of experiment: NCCLS broth microdilution MIC. It is filed as cell-based, Staphylococcus aureus. Particulars: Col. C = S. aureus ATCC 43300 (MRSA).
Excerpt: as §6

Regarding `Cn1cc(NC(=O)c2sc3ccccc3c2Cl)cc1-c1nc2ccc(C(=O)NCCN3CCCCC3)cc2[nH]1` [Compound 18], in assay [1], the Kd was found to be 5 nM. The “Minimum Inhibitory Concentration (MIC)” value is “++ (++ = MIC ≦ 1)” in assay [2]; “++ (++ = MIC ≦ 1)” in assay [3]; “++ (++ = MIC ≦ 1)” with S. aureus ATCC 33591; “++ (++ = MIC ≦ 1)” with S. aureus ATCC 27660; >32 µg/mL in assay [4].
`Cn1cc(NC(=O)c2sc3ccccc3c2Cl)cc1C(=O)Nc1cc(C(=O)NCCN2CCCCC2)n(CCN2CCOCC2)c1` [Compound 16]: the dissociation constant Kd in assay [1] was found to be 10 nM. For the same molecule, the “Minimum Inhibitory Concentration (MIC)” value in assay [2] is “++ (++ = MIC ≦ 1)”; in assay [3], “++ (++ = MIC ≦ 1)”; in the assay with S. aureus ATCC 33591, “++ (++ = MIC ≦ 1)”; in the assay on S. aureus ATCC 27660, “++ (++ = MIC ≦ 1)”; in assay [4], 4 µg/mL.
As to `Cn1cc(NC(=O)c2cc(NC(=O)CCNC(=O)c3cc(NC(=O)c4cc(NC(=O)c5cc(Br)c(Br)s5)cn4C)cn3C)cn2C)cc1C(=O)NCCC(=O)NCCN1CCCCC1` [Compound 3], the results for the equilibrium dissociation constant (Kd) in [5] and in [6] were 0.01 nM and 2 nM, respectively. Moreover, the “Minimum Inhibitory Concentration (MIC)” value in [2] was “+ (+ = MIC ≦ 2)”; in assay [3] it was “++ (++ = MIC ≦ 1)”; in the assay on S. aureus ATCC 33591, “++ (++ = MIC ≦ 1)”; in the assay with S. aureus ATCC 27660, “++ (++ = MIC ≦ 1)”; in assay [4], >32 µg/mL.
For the molecule `Cn1cc(NC(=O)c2cc(NC(=O)c3cc(NC(=O)c4ccc(F)cc4F)cn3C)cn2C)cc1C(=O)NCCN1CCCCCC1` [Compound 15], the Kd in assay [1] amounted to 2 nM. Moreover, the “Minimum Inhibitory Concentration (MIC)” value was “+ (+ = MIC ≦ 2)” in assay [2]; “++ (++ = MIC ≦ 1)” in assay [3]; “− (− = MIC > 2)” in the assay on S. aureus ATCC 33591; “++ (++ = MIC ≦ 1)” with S. aureus ATCC 27660; 8 µg/mL in assay [4].
Take `CN(C)CC(C)(C)CNC(=O)CCNC(=O)c1cc(NC(=O)c2cc(NC(=O)CCNC(=O)c3cc(NC(=O)c4cc(NC(=O)c5cc(Br)c(Br)s5)cn4C)cn3C)cn2C)cn1C` [Compound 5]: the Kd in assay [5] amounted to 0.01 nM; in assay [7] it was 2 nM. Also, the “Minimum Inhibitory Concentration (MIC)” value was “− (− = MIC > 2)” in assay [2]; “++ (++ = MIC ≦ 1)” in [3]; “++ (++ = MIC ≦ 1)” with S. aureus ATCC 33591; “++ (++ = MIC ≦ 1)” with S. aureus ATCC 27660; >32 µg/mL in assay [4].
In the case of `CCN(CC)CCCNC(=O)CCNC(=O)c1cc(NC(=O)c2cc(NC(=O)CCNC(=O)c3cc(NC(=O)c4cc(NC(=O)c5cc(Br)c(Br)s5)cn4C)cn3C)cn2C)cn1C` [Compound 4], the values for the Kd in [5] and in assay [6] were 0.01 nM and 10 nM, respectively. In addition, the “Minimum Inhibitory Concentration (MIC)” value in assay [2] is “− (− = MIC > 2)”; in assay [3], “++ (++ = MIC ≦ 1)”; with S. aureus ATCC 33591, “++ (++ = MIC ≦ 1)”; in the assay on S. aureus ATCC 27660 it was “++ (++ = MIC ≦ 1)”; in [4] it was >32 µg/mL.
As to `CC(C)N(CCNC(=O)CCNC(=O)c1cc(NC(=O)c2cc(NC(=O)CCNC(=O)c3cc(NC(=O)c4cc(NC(=O)c5cc(Br)c(Br)s5)cn4C)cn3C)cn2C)cn1C)C(C)C` [Compound 2], the equilibrium dissociation constant (Kd) is 0.2 nM in [5] and 10 nM in assay [6]. Further, the “Minimum Inhibitory Concentration (MIC)” value in [2] is “+ (+ = MIC ≦ 2)”; in assay [3] it was “++ (++ = MIC ≦ 1)”; with S. aureus ATCC 33591, “− (− = MIC > 2)”; in the assay on S. aureus ATCC 27660 it was “++ (++ = MIC ≦ 1)”; in [4] it was >32 µg/mL.
Consider `Cn1cc(NC(=O)c2cc(NC(=O)c3cc(NC(=O)c4sc5ccccc5c4Cl)cn3C)cn2C)cc1C(=O)NCCN1CCOCC1` [Compound 8], for which the Kd in assay [1] came out at 0.2 nM. In addition, the “Minimum Inhibitory Concentration (MIC)” value is “++ (++ = MIC ≦ 1)” in assay [2]; “++ (++ = MIC ≦ 1)” in assay [3]; “++ (++ = MIC ≦ 1)” in the assay with S. aureus ATCC 43300; “++ (++ = MIC ≦ 1)” in the assay on S. aureus ATCC 33591; “++ (++ = MIC ≦ 1)” with S. aureus ATCC 27660; >32 µg/mL in assay [4].
Regarding `Cn1cc(NC(=O)c2cc(NC(=O)c3cc(NC(=O)c4sccc4Cl)cn3C)cn2C)cc1C(=O)NCCN1CCSCC1` [Compound 11], the Kd in [7] is ≤ 1 nM. For the same molecule, the “Minimum Inhibitory Concentration (MIC)” value in assay [2] is “+ (+ = MIC ≦ 2)”; in [3], “++ (++ = MIC ≦ 1)”; in the assay with S. aureus ATCC 33591, “− (− = MIC > 2)”; in the assay with S. aureus ATCC 27660 it was “+ (+ = MIC ≦ 2)”; in [4], >32 µg/mL.
